Legend:
AMPK = test: Kinase selectivity screen; type: biochemical, rat
Protocol: The substantially less demanding synthesis of ICL-CCIC-0019 compared with MN58B bears additional advantages. […] This consequently diminished intracellular PCho concentration, and importantly, the incorporation of [^3H]-choline into lipids (Figure 1D). […] To assess kinase specificity, ICL-CCIC-0019 was tested against a panel of 131 human kinases (Figure 1E and Supplementary Table S1). […] Inhibition greater than 20% was attained for insulin-like growth factor 1 (IGF-1R, 35 ± 7% inhibition), mitogen-activated protein kinase-activated protein kinase 3 (MAPKAP-K3, 33 ± 6%), extracellular signal regulated kinase 8 (ERK8, 31 ± 4%), ribosomal S6 kinase 1 (RSK1, 22 ± 6%), and v-erb-a erythroblastic leukemia viral oncogene homolog 4 (HER4, 21 ± 7%).

HCT116 cells [1] = test: Reactive oxygen species assay; type: cell-based, human; conditions: 10 μM
Protocol: For ROS measurements, cells were seeded in 96-well plates and treated with indicated ICL-CCIC-0019 (10 μM), pro- and antioxidants (0.25% H2O2 and 5 mM N-acetyl cysteine, NAC; all from Sigma-Aldrich) for indicated times. C400 (Life Technologies) was added at a final concentration of 50 μM and incubated at 37°C for 15 minutes and fluorescence quantified.

HCT116 cells [2] = test: Mitochondrial respiration (Seahorse XF24); type: cell-based, human; conditions: 10 μM
Protocol: Extracellular acidification and oxygen consumption rates (ECAR and OCR) were measured in a XF24 extracellular flux analyzer (Seahorse XF24 Extra Cellular Flux Analyzer, North Billerica, MA, USA). Basic XF assay medium was prepared as previously described supplemented with glucose, and the pH adjusted to 7.4 at 37°C. Indicated final concentrations of compounds were obtained by injecting appropriate amounts of compounds dissolved in DMSO or water and diluted in XF assay medium into ports. […] Indicated data points were obtained after 3 min mixing and 2 min wait, followed by 3 min of data collection. Data were normalized to the basal values.

CHKA = molecular target: T1, CHKA (Homo sapiens, UniProt P35790); test: CHKA dimer integrity by BN-PAGE; type: cell-based; conditions: HCT116 cells, 24 hours
T1 construct: endogenous in cells; host or cells: HCT116
Protocol: Native gels were run using blue native polyacrylamide gel electrophoresis (BN-PAGE) method. Cell homogenates were obtained by addition of passive lysis buffer (Promega) containing protease and phosphatase inhibitors to cell pellets and incubation for 30 minutes on a tube rotor at 4°C. Samples were cleared by centrifugation for 10 minutes at 12 000 × g at 4°C. Samples were prepared by mixing 30 μg protein with an equal volume of 2 × sample buffer (62.5 mM Tris-HCl, pH 6.8, 25% (v/v) glycerol, 0.01% (w/v) bromophenol blue, 0.02% (w/v) Coomassi Blue G250; all from Sigma-Aldrich). As control, D49N CHKA2 [58] was either applied under native conditions (100 ng diluted to 10 μL in 100 mM Tris buffer pH 7.4 added to 10 μL 2 × sample buffer) or denatured using SDS [100 ng diluted in RIPA buffer, 1 × NuPAGE LDS sample buffer and 1 × sample reducing agent (both Life Technologies)] and incubated at 70°C for 10 minutes. Samples were resolved on 4–15% mini-protean TGX gels using 1 × native running buffer (25 mM Tris, 192 mM glycine, pH 8.3). The cathode buffer was additionally supplemented with 750 μL Coomassi Blue G250 [final concentration ca. 0.04% (w/v)]. Membranes were transferred and probed as described above.

HCT116 xenografts = test: Antitumor activity in HCT116 xenograft model; type: in vivo, BALB/c nude mice; conditions: 5 mg/kg i.p. once a day on days 1–3, 11 day recovery
Protocol: All animal experiments were conducted in accordance with the United Kingdom Home Office Guidance on the Operation of The Animals (Scientific Procedures) Act 1986 Amendment Regulations 2012 and within the published guidelines for the welfare and use of animals in cancer research. Xenografts were established in female BALB/c nude mice aged 6–8 weeks (Harlan) by subcutaneous (s.c.) injection of 100 μL HCT116 cells (5 × 10^6 in PBS) on the back of mice. Tumor dimensions were frequently measured by calliper and volumes calculated by the following equation: volume (mm^3) = (π/6) × a × b × c, where a, b, and c represent 3 orthogonal axes of the tumor. When tumor volumes reached approximately 50–100 mm^3 (ca. 10 days post injection), mice were used for subsequent studies.

HCT116 cells [3] = test: Metabolomics (LC-MS of soluble metabolites); type: cell-based, human; conditions: for change of intracellular PCho pool: 24 h
Protocol: Unlabeled metabolite analyses were conducted as previously reported. HCT116 cells cultured overnight in 6-well plates were treated with vehicle, 1 or 10 μM ICL-CCIC-0019 for 24 h prior to extraction. For flux experiments, HCT116 cells were plated onto 6-well plates and cultured overnight. The cells were then grown in medium containing vehicle or 1 μM ICL-CCIC-0019 for 24 h. The medium was then replaced with that containing ^13C metabolites (5 mM ^13C6-glucose or 0.2 mM ^13C2-acetate) and inhibitor for various indicated time points. Metabolites were extracted with a cold solution (−20°C) composed of methanol, acetonitrile, and water (5:3:2). The insoluble material was immediately pelleted in a cooled (0°C) centrifuge at 16,000 × g for 15 min and the supernatant was collected for subsequent LC-MS analysis. A ZIC-pHILIC column (4.6 mm × 150 mm, guard column 2.1 mm × 20 mm, Merck) was used for LC separation using formic acid, water, and acetonitrile as component of the mobile phase. Metabolites were detected using an Exactive mass spectrometer (ThermoFisher).

A549 cells = test: Comparative antiproliferative activity; type: cell-based, human
Protocol: (§1) Enzymatic kinase activity, [^3H]choline to [^3H]PCho conversion and growth inhibition assays was conducted as previously described. [^3H]choline incorporation into soluble and lipid fractions was determined by a pulse-chase experiment. HCT116 cells were seeded at a density of 3 × 10^5 cell per well into 12-well plates and incubated overnight. Cells were treated with 1 or 10 μM ICL-CCIC-0019 for 1 h and pulsed in presence of inhibitor with 18.5 kBq/mL [^3H]choline chloride in 500 μL for 1 additional h. Cells were briefly rinsed with RPMI and incubated with fresh, non-radioactive medium for 6 h. Metabolites were extracted as described elsewhere, but additionally the radioactivity of the choline-containing and chloroform (lipid-containing) fractions was measured. Uptake of radiolabeled metabolite-tracers was measured as described elsewhere. Antiproliferative activity was measured after 72 h continuous exposure to inhibitors by sulforhodamine B (SRB) assay as described elsewhere. Apoptosis was determined using Caspase 3/7 Glo assay (Promega) according to the manufacturer's instructions.

HCT116 cells [4] = test: [3H]choline uptake in HCT116 cells; type: cell-based; conditions: Homo sapiens, HCT-116
Protocol: as §1

T1 sequence (P35790 whole entry): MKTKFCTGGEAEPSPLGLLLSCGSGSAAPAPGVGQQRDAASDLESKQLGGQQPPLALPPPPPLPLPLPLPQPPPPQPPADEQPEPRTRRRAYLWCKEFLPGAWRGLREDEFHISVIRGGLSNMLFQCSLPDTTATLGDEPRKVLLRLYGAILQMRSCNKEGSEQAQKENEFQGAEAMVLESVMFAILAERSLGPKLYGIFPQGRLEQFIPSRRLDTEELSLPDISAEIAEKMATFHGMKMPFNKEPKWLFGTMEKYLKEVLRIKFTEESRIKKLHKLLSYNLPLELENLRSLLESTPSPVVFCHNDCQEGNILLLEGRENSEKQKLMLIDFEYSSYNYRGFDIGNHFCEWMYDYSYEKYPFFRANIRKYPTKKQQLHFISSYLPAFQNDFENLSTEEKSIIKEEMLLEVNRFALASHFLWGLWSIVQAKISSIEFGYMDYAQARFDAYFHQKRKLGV

## CN(C)c1cc[n+](CCCCCCCCCCCC[n+]2ccc(N(C)C)cc2)cc1 [ICL-CCIC-0019]
AMPK; AMPK, 10 μM
  % activity remaining: 109%
AMPK; cell-free kinase assays
  direct effect on AMPK activity: did not directly alter AMPK activity
HCT116 cells [1]
  formation of reactive oxygen species: not accompanied by formation of reactive oxygen species
HCT116 cells [2]
  mitochondrial respiration immediately after adding inhibitor (acute effect): decreased mitochondrial respiration
CHKA
  CHKA enzyme dimerization: not compromised
HCT116 xenografts
  antitumour activity: potent antitumour activity
HCT116 cells [3]; 1 μM
  change of intracellular PCho pool: −56%
HCT116 cells [3]; 10 μM
  change of intracellular PCho pool: −61%
HCT116 cells [3]; HCT116 cells
  decrease in S-adenosylhomocysteine (SAH): 26%
  increase in SAM: 11%
A549 cells
  antiproliferative activity compared with CK37: superior to CK37
  antiproliferative activity compared with MN58B: equipotent to MN58B
HCT116 cells [4]
  EC50: 980 ± 240 nM
